Measured values: ChEMBL document CHEMBL2057157, “Butyl pocket formation in the vitamin D receptor strongly affects the agonistic or antagonistic behavior of ligands” (J Med Chem, 2012)

Molecular target: T1, Vitamin D3 receptor (Homo sapiens, UniProt P11473)
T1 sequence (P11473 whole entry): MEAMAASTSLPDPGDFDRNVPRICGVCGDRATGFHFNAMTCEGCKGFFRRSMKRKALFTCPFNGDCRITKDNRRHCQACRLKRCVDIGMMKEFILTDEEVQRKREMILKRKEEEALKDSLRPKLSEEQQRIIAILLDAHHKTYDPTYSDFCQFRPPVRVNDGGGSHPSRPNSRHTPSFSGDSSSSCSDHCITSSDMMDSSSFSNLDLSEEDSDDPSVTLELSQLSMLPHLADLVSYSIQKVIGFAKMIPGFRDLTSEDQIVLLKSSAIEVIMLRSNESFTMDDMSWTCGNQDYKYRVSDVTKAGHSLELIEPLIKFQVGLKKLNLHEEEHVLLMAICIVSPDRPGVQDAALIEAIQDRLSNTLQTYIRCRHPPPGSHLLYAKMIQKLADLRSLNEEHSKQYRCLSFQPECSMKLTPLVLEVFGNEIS
Assay: Displacement of [3H]1alpha,25-dihydroxyvitamin D3 from human recombinant GST-tagged vitamin D3 receptor LBD expressed in Escherichia coli BL21 after 16 hrs

IC50: 0.38 nM
Compound: C=C1[C@H](O)CC(=C/C=C2\CCC[C@]3(C)[C@@H]([C@H](C)[C@@H](CC)CC(O)(CC)CC)CC[C@@H]23)C[C@H]1O
